From patent US12187723B2 (BRISTOL-MYERS SQUIBB COMPANY, priority 2019, dated 2025)
pIC50: −log10 of the molar value.

Legend:
Type in all cases: cell-based
human TLR7 = target: T1, human TLR7 (Homo sapiens, UniProt Q9NYK1); assay: TLR7 inhibition reporter assay (HEK-Blue SEAP); settings: HEK-Blue cells overexpressing human TLR7, gardiquimod 7.5 μM, 22 hour incubation
T1 construct: host or cells: HEK-Blue cells
T1 sequence (Q9NYK1 27-1049): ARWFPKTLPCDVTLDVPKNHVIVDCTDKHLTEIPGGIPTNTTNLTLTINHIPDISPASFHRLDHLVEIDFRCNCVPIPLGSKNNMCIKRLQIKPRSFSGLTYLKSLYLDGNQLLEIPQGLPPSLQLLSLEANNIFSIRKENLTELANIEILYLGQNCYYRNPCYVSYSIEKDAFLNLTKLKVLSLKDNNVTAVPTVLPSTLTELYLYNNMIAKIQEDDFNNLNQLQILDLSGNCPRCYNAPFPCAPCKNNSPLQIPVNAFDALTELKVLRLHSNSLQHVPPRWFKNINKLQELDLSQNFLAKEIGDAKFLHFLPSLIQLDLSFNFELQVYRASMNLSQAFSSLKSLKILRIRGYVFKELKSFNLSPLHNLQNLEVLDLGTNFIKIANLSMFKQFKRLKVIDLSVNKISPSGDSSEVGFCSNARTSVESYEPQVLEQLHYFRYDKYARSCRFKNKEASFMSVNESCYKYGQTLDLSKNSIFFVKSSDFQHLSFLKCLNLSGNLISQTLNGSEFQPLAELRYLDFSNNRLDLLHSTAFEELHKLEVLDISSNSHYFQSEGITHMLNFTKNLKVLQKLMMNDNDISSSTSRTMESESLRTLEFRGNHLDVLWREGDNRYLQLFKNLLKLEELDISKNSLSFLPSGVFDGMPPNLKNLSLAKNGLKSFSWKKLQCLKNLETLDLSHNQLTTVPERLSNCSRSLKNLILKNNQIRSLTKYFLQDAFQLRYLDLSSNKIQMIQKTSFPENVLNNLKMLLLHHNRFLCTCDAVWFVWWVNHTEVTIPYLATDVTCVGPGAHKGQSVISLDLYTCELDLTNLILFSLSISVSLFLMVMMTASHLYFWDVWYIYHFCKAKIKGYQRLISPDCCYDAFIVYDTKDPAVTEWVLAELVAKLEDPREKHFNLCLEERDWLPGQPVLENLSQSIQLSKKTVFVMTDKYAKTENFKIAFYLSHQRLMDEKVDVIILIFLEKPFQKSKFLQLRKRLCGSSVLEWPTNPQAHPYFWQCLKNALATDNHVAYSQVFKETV
Protocol: (§1) TLR7/8/9 Inhibition Reporter Assays
Briefly, cells are seeded into Greiner 384 well plates (15000 cells per well for TLR7, 20,000 for TLR8 and 25,000 for TLR9) and then treated with test compounds in DMSO to yield a final dose response concentration range of 0.05 nM-50 μM. […] After a 22 hour incubation at 37° C., 5% CO2, SEAP levels are determined with the addition of HEK-Blue™ Detection reagent (Invivogen), a cell culture medium that allows for detection of SEAP, according to manufacturer's specifications. The percent inhibition is determined as the % reduction in the HEK-Blue signal present in wells treated with agonist plus DMSO alone compared to wells treated with a known inhibitor.

human TLR8 = target: T2, human TLR8 (Homo sapiens, UniProt Q9NR97); assay: TLR8 inhibition reporter assay (HEK-Blue SEAP); settings: HEK-Blue cells overexpressing human TLR8, R848 15.9 μM, 22 hour incubation
T2 construct: host or cells: HEK-Blue cells
T2 sequence (Q9NR97 27-1041): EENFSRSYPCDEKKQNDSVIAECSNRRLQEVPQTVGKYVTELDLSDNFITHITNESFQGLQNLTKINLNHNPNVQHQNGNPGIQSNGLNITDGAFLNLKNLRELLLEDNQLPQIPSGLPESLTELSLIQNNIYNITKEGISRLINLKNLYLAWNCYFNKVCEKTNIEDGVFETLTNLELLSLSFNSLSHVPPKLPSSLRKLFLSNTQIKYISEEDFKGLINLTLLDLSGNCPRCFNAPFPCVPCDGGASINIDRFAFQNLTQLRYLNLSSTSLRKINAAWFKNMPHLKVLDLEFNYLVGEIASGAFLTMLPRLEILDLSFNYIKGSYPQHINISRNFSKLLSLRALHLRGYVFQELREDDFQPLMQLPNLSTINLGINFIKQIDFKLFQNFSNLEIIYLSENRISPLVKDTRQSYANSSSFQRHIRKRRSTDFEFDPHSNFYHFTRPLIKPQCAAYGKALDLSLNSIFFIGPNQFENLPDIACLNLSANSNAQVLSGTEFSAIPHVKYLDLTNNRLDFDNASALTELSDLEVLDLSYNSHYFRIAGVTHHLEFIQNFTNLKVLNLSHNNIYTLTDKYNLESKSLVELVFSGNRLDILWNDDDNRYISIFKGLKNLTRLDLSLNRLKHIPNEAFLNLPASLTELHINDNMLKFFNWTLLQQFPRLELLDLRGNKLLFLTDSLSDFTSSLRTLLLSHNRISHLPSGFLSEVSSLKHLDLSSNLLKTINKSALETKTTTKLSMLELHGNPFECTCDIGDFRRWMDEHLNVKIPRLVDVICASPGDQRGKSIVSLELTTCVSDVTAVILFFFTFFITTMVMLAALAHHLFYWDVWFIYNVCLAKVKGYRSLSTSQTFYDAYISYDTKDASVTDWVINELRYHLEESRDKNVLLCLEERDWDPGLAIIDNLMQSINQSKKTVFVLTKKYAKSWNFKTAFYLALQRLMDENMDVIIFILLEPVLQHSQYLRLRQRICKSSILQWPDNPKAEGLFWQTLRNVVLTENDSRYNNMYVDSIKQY
Protocol: as §1
(§2) HEK-Blue™-cells (Invivogen) overexpressing human TLR7, TLR8 or TLR9 receptors were used for screening inhibitors of these receptors using an inducible SEAP (secreted embryonic alkaline phosphatase) reporter gene under the control of the IFN-β minimal promoter fused to five NF-κB and AP-1-binding sites. Briefly, cells are seeded into Greiner 384 well plates (15000 cells per well for TLR7, 20,000 for TLR8 and 25,000 for TLR9) and then treated with test compounds in DMSO to yield a final dose response concentration range of 0.05 nM-50 μM. After a 30 minute compound pre-treatment at room temperature, the cells are then stimulated with a TLR7 ligand (gardiquimod at a final concentration of 7.5 μM), TLR8 ligand (R848 at a final concentration of 15.9 μM) or TLR9 ligand (ODN2006 at a final concentration of 5 nM) to activate NF-κB and AP-1 which induce the production of SEAP. After a 22 hour incubation at 37° C., 5% CO2, SEAP levels are determined with the addition of HEK-Blue™ Detection reagent (Invivogen), a cell culture medium that allows for detection of SEAP, according to manufacturer's specifications. The percent inhibition is determined as the % reduction in the HEK-Blue signal present in wells treated with agonist plus DMSO alone compared to wells treated with a known inhibitor.

human TLR9 = target: T3, human TLR9 (Homo sapiens, UniProt Q9NR96); assay: TLR9 inhibition reporter assay (HEK-Blue SEAP); settings: HEK-Blue cells overexpressing human TLR9, ODN2006 5 nM, 22 hour incubation
T3 construct: host or cells: HEK-Blue cells
T3 sequence (Q9NR96 26-1032): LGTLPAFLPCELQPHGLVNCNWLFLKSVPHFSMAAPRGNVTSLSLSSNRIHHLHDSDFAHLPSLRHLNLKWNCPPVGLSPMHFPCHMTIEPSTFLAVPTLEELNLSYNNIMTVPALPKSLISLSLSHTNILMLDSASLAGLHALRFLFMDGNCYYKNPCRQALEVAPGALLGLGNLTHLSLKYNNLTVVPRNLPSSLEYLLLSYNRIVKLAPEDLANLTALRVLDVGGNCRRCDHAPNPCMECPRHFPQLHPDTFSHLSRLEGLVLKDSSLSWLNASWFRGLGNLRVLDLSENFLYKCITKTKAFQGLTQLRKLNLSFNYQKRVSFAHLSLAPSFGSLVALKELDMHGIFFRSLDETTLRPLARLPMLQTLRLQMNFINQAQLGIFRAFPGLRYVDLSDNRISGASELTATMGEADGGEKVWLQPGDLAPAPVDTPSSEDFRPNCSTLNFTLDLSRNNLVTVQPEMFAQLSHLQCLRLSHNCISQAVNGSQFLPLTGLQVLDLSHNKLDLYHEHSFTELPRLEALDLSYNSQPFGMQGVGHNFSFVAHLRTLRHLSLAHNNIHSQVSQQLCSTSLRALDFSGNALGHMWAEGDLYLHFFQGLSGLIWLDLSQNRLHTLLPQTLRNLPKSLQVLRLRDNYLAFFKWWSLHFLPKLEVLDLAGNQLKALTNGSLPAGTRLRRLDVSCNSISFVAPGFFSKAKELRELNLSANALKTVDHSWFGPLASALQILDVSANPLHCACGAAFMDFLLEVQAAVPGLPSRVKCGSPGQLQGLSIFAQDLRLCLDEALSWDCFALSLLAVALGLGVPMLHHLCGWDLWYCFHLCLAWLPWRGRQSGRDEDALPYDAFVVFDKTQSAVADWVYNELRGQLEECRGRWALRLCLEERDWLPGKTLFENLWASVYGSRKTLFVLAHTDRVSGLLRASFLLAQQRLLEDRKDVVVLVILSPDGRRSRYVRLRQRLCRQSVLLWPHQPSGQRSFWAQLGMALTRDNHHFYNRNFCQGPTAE
Protocol: as §1, §2

Row | Compound | pIC50 (human TLR7) | pIC50 (human TLR8) | pIC50 (human TLR9)
1 | COc1cc(-c2cc3[nH]c(=O)n(C4CCC(N5CC6(C5)CS(=O)(=O)C6)CC4)c3cc2C(C)C)cn2ncnc12 (single isomer, unassigned) [Example 244, 1-(4-(2,2-dioxido-2-thia-6-azaspiro[3.3]heptan-6-yl)cyclohexyl)-6-isopropyl-5-(8-methoxy-[1,2,4]triazolo[1,5-a]pyridin-6-yl)-1,3-dihydro-2H-benzo[d]imidazol-2-one] | 8.08 | 8.45 | 
2 | Cc1cc2c(cc1-c1cc(C)c3ncnn3c1)[nH]c(=O)n2[C@@H]1CCCN(CCC(C)C)C1 [Example 38, (R)-1-(1-isopentylpiperidin-3-yl)-6-methyl-5-(8-methyl-[1,2,4]triazolo[1,5-a]pyridin-6-yl)-1,3-dihydro-2H-benzo[d]imidazol-2-one] |  | 7.78 | 5.30
3 | Cc1c(-c2cc3[nH]c(=O)n([C@@H]4CCCN(CC(C)(C)C)C4)c3cc2C(C)C)cn2ncnc2c1C [Example 152, (R)-5-(7,8-dimethyl-[1,2,4]triazolo[1,5-a]pyridin-6-yl)-6-isopropyl-1-(1-neopentylpiperidin-3-yl)-1,3-dihydro-2H-benzo[d]imidazol-2-one] | 8.26 | 7.61 | 
4 | CCc1cc2c(cc1-c1cc(OC)c3ncnn3c1)[nH]c(=O)n2[C@@H]1CCCN(C2CCCOC2)C1 (stereo partly drawn) [Example 214, 6-ethyl-5-(8-methoxy-[1,2,4]triazolo[1,5-a]pyridin-6-yl)-1-((3R)-1-(tetrahydro-2H-pyran-3-yl)piperidin-3-yl)-1,3-dihydro-2H-benzo[d]imidazol-2-one] | 7.77 | 7.71 | 
5 | CCc1cc2c(cc1-c1cc(OC)c3ncnn3c1)[nH]c(=O)n2[C@@H]1CCCN(C(C)CC)C1 (stereo partly drawn) [Example 176, 1-((3R)-1-(sec-butyl)piperidin-3-yl)-6-ethyl-5-(8-methoxy-[1,2,4]triazolo[1,5-a]pyridin-6-yl)-1,3-dihydro-2H-benzo[d]imidazol-2-one] | 8.47 | 8.10 | 
